# Test results published in paper PMC9178925 (Biochemical pharmacology, 2022).
# Values joined by “and” are separate entries in the source; they are usually repeats but may differ in a detail not shown here. Equal values may be shown once.
# Columns and labels:
# [1] = biological target: α1β1γ2S GABAAR (Rattus norvegicus, UniProt P15431+P62813); assay type: cell-based; settings: 100 μM (+)-catharanthine, % over control EC5 GABA; mean ± SEM
# [2] = biological target: α1β2γ2S GABAAR (Rattus norvegicus, UniProt P62813+P63138); assay type: cell-based, rat (β2 rat or human)
# [3] = biological target: α1β3γ2S GABAAR (Rattus norvegicus, UniProt P62813+P63079); assay type: cell-based
# [4] = biological target: α2β1γ2S GABAAR (UniProt P15431+P47869); assay type: cell-based, human α2, rat β1 and γ2S; settings: 100 μM (+)-catharanthine, % over control EC5 GABA; mean ± SEM
# [5] = tested on: α2β3γ2S GABAAR; test: Two-electrode voltage clamp, potentiation of EC5 GABA currents in oocytes; assay type: cell-based, human α2, rat β and γ2S
# [6] = biological target: α2β3γ2S GABAAR (UniProt P47869+P63079); test: as above; assay type: cell-based, human α2, rat β3 and γ2S
# [7] = biological target: α1β3(M286C)γ2S GABAAR (Rattus norvegicus, UniProt P62813+P63079, M311C); test: Two-electrode voltage clamp, potentiation of low GABA currents in oocytes; assay type: cell-based; settings: 100 μM (+)-catharanthine, ~EC5 GABA, n = 5 oocytes
# [8] = biological target: α1β2(N265S)γ2S GABAAR (Rattus norvegicus, UniProt P62813+P63138, N289S); test: as above; assay type: cell-based, rat (β2 rat or human); settings: 100 μM (+)-catharanthine, ~EC5 GABA
# [9] = biological target: T1, α1β2γ2L GABAAR (Rattus norvegicus, UniProt P62813+P63138); test: Two-electrode voltage clamp, concentration-response and mechanistic; assay type: cell-based, rat (β2 rat or human)
# [10] = biological target: α1β2(N265S)γ2L GABAAR (Rattus norvegicus, UniProt P62813+P63138, N289S); assay type: cell-based, rat (β2 rat or human); settings: β2(N265S)
# [11] = biological target: α1β2(R269A)γ2L GABAAR (Rattus norvegicus, UniProt P62813+P63138, R293A); assay type: cell-based, rat (β2 rat or human); settings: β2(R269A)
# [12] = biological target: α1β2(K279A)γ2L GABAAR (Rattus norvegicus, UniProt P62813+P63138, K303A); assay type: cell-based, rat (β2 rat or human); settings: β2(K279A)
# [13] = biological target: α1β2(D282A)γ2L GABAAR (Rattus norvegicus, UniProt P62813+P63138, D306A); assay type: cell-based, rat (β2 rat or human); settings: β2(D282A)
# [14] = biological target: α1β2(K279A+D282A)γ2L GABAAR (Rattus norvegicus, UniProt P62813+P63138, D306A/K303A); assay type: cell-based, rat (β2 rat or human); settings: β2(K279A+D282A)
# [15] = biological target: α1(Q241L)β2γ2L GABAAR (Rattus norvegicus, UniProt P62813+P63138, Q268L); test: Two-electrode voltage clamp, potentiation of low GABA currents in oocytes; assay type: cell-based, rat (β2 rat or human)
# [16] = tested on: β2/3-containing GABAARs vs β1-containing GABAARs; test: GABAAR subtype selectivity of potentiation; assay type: cell-based; settings: low, subsaturating GABA
# [17] = biological target: T1, α1β2γ2L GABAAR; test: Functional competition assay; settings: for potentiation of GABA-activated receptors: n = 5 oocytes
# [18] = 100 μM (+)-catharanthine, % over control EC5 GABA, mean ± SEM
# [19] = read-out: KCath (estimated affinity of (+)-catharanthine for the resting receptor), low GABA (PA ~0.2), Eq. 1, NCath = 2, mean ± SEM, 5 oocytes
# [20] = calculated from cCath, NCath = 2
# [21] = low GABA (PA ~0.2), Eq. 1, NCath = 2
# [22] = absence of GABA, Hill equation fit
# [23] = 1 μM R(+)-etomidate + 10 μM (+)-catharanthine
# [24] = GABA + 3 μM loreclezole + 30 μM (+)-catharanthine
smiles,measurement,setting,value
"CCC1=C[C@@H]2CN3CCc4c([nH]c5ccccc45)[C@@](C(=O)OC)(C2)[C@@H]13 [(+)-catharanthine, (+)-3,4-didehydrocoronaridine]",(+)-Catharanthine maximal potentiation (%),[1],269 ± 42 (4) %
same,(+)-Catharanthine maximal potentiation (%),[2]; [18],739 ± 110 (11) %
same,potentiation of the response to low GABA,"[2]; 100 μM (+)-catharanthine, ~EC5 GABA",1099 ± 163%
same,(+)-Catharanthine relative potentiation (αxβ2/3γ2S)/(αxβ1γ2S),"[2]; α1β2γ2S vs α1β1γ2S, 100 μM",2.7
same,(+)-Catharanthine maximal potentiation (%),[3]; [18],646 ± 64 (10) %
same,potentiation of the response to low GABA,"[3]; 100 μM (+)-catharanthine, ~EC5 GABA, n = 6 oocytes",667 ± 111%
same,(+)-Catharanthine relative potentiation (αxβ2/3γ2S)/(αxβ1γ2S),"[3]; α1β3γ2S vs α1β1γ2S, 100 μM",2.4
same,(+)-Catharanthine maximal potentiation (%),[4],211 ± 26 (5) %
same,(+)-Catharanthine maximal potentiation (%),"[5]; 100 μM (+)-catharanthine, % over control EC5 GABA, first line printed α2β3γ2S",691 ± 65 (5) %
same,(+)-Catharanthine relative potentiation (αxβ2/3γ2S)/(αxβ1γ2S),"[5]; first line printed α2β3γ2S vs α2β1γ2S, 100 μM",3.3
same,(+)-Catharanthine maximal potentiation (%),"[6]; 100 μM (+)-catharanthine, % over control EC5 GABA, second line printed α2β3γ2S",728 ± 120 (4) %
same,(+)-Catharanthine relative potentiation (αxβ2/3γ2S)/(αxβ1γ2S),"[6]; second line printed α2β3γ2S vs α2β1γ2S, 100 μM",3.5
same,potentiation of the response to low GABA,[7],651 ± 115%
same,potentiation of the response to low GABA,[8],224 ± 13%
same,maximal efficacy [(PAmax/PAmin)-1 × 100] / maximum potentiation,"[9]; 2 μM GABA, Hill equation fit, % of control",341%
same,potentiation of GABA-evoked currents,"[9]; 30 μM (+)-catharanthine, 2 μM GABA, n = 6 oocytes",372 ± 72%
same,EC50,"[9]; read-out: EC50 for potentiation, wild-type, 2 μM GABA, Hill equation fit",13.5 ± 1.8 µM
same,Kd,"[9]; read-out: KCath (estimated affinity of (+)-catharanthine for the resting receptor), wild-type, 2 μM GABA background, fit to Eq. 1, NCath constrained to 2, mean ± SEM, 5 oocytes",29.4 ± 6 µM
same,cCath (ratio of the affinities for the active and resting states),"[9]; wild-type, 2 μM GABA background, fit to Eq. 1, NCath constrained to 2",0.231 and 0.231±0.023
same,nH (Hill coefficient),"[9]; wild-type, 2 μM GABA, Hill equation fit",1.66 and 1.66±0.33
same,ΔG (free energy change to stabilize the active state),"[9]; wild-type, calculated from cCath as NCathRTln(cCath), NCath = 2",-1.76 kcal/mol and -1.76 ± 0.12 kcal/mol
same,Kd,[10]; [19],23.9 ± 2.5 µM
same,ΔG,[10]; [20],-1.12 ± 0.07 kcal/mol
same,cCath (ratio of the affinities for the active and resting states),[10]; [21],0.390±0.021
same,EC50,"[10]; low GABA, Hill equation fit",17.7 ± 1.4 µM
same,nH,"[10]; low GABA, Hill equation fit",1.53±0.13
same,Kd,[11]; [19],18.8 ± 3.3 µM
same,ΔG,[11]; [20],-1.53 ± 0.11 kcal/mol
same,cCath (ratio of the affinities for the active and resting states),[11]; [21],0.279±0.022
same,EC50,"[11]; low GABA, Hill equation fit",9.3 ± 1.2 µM
same,nH,"[11]; low GABA, Hill equation fit",1.29±0.10
same,Kd,"[12]; read-out: KCath (estimated affinity of (+)-catharanthine for the resting receptor), direct activation in the absence of GABA (PA,constitutive 0.22), Eq. 1, NCath = 2, 5 oocytes",17.8 ± 1.6 µM
same,cCath (ratio of the affinities for the active and resting states),"[12]; absence of GABA, Eq. 1, NCath = 2",0.421±0.034
same,EC50,[12]; [22],13.6 ± 2 µM
same,nH,[12]; [22],1.08±0.11
same,ΔG,[12]; [20],-1.04 ± 0.10 kcal/mol
same,Kd,[13]; [19],7.1 ± 2.8 µM
same,ΔG,[13]; [20],-0.55 ± 0.07 kcal/mol
same,cCath (ratio of the affinities for the active and resting states),[13]; [21],0.630±0.039
same,EC50,"[13]; low GABA, Hill equation fit",7.7 ± 1.6 µM
same,nH,"[13]; low GABA, Hill equation fit",1.88±0.39
same,ΔG,[14]; [20],−0.19 ± 0.01 kcal/mol and −0.19±0.01nd kcal/mol
same,cCath (ratio of the affinities for the active and resting states),"[14]; pooled data, best-fit ± standard error of the fit",0.848±0.010nd
same,EC50,"[14]; pooled data, Hill equation fit",15.8 ± 5.9 µM
same,nH,"[14]; pooled data, Hill equation fit",1.30
same,potentiation of GABA-evoked currents,"[15]; 30 μM (+)-catharanthine, 30 μM GABA, n = 6 oocytes",231 ± 33%
same,efficacy of potentiation at β2/3-containing relative to β1-containing GABAARs,[16],2.4–3.5 times
same,"predicted PA, model with overlapping sites (Eq. 2)",[17]; [23],0.024 ± 0.006
same,"predicted PA, model with unique non-overlapping sites (Eq. 1)",[17]; [23],0.115 ± 0.031
same,"PA of peak response, observed","[17]; 10 μM (+)-catharanthine coapplied with 1 μM R(+)-etomidate, 7 oocytes",0.086 ± 0.024
same,potentiation of GABA-activated receptors,"[17]; 10 μM (+)-catharanthine, 0.05 μM GABA",1600 ± 400%
same,potentiation of the peak response elicited by R(+)-etomidate,"[17]; 10 μM (+)-catharanthine, 1 μM R(+)-etomidate, n = 7 oocytes",160 ± 24%
same,potentiation of the peak response to pregnanolone,"[17]; 10 μM (+)-catharanthine, 2 μM pregnanolone, five oocytes",2200 ± 400%
same,potentiation of GABA-activated receptors,"[17]; 10 μM (+)-catharanthine, 1–2 μM GABA",353 ± 68%
same,"PA of the peak response, observed",[17]; 0.2–0.5 μM GABA + 3 μM loreclezole + 30 μM (+)-catharanthine,0.21 ± 0.13
same,PA of the peak response,[17]; 0.2–0.5 μM GABA + 30 μM (+)-catharanthine,0.16 ± 0.11
same,"predicted PA, distinct site model",[17]; [24],0.62 ± 0.17
same,"predicted PA, same site model",[17]; [24],0.19 ± 0.11
"NCCCC(=O)O [GABA, γ-aminobutyric acid, reference compound]",PA (probability of being in the active state) of peak response,"[9]; 2 μM GABA alone, normalized to 1 mM GABA + 50 μM propofol",0.18 and 0.17 ± 0.02 and 0.15 ± 0.02
same,PA of peak response,"[9]; 10 μM GABA alone, n = 6 oocytes",0.26 ± 0.03
same,PA (probability of being in the active state) of peak response,[15]; 30 μM GABA alone,0.19 ± 0.05
same,PA of peak response,[17]; 0.05 μM GABA alone,0.004 ± 0.001
same,PA of peak response,[17]; 0.75 μM GABA alone,0.051 ± 0.018
same,mean PA of the peak response,"[17]; 0.2–0.5 μM GABA alone, n = 7 oocytes",0.009 ± 0.008
same,PA of peak response,[17]; 1–2 μM GABA alone,0.030 ± 0.007
